We go through 3 molecules from US9943525B2, “Composition for reducing cell senescence comprising Rho-kinase inhibitor and use thereof” (Samsung Electronics Co., Ltd., priority 2014, dated 2018).

SMILES strings stand for the structures.

Experiment [1] deals with senescent fibroblasts (after 37 cell passages). Briefly: lipofuscin autofluorescence by flow cytometry. The note with it: 4 weeks, vs control, p<0.05, FIG. 9. The format is cell-based, human. The protocol: In addition, amounts of lipofuscin accumulated in the cultured cells were measured. Senescent cells (After 37 cell passages) were cultured for 4 weeks in a 5% CO2 incubator at 37° C. in the presence of 5 μM of Y-27632, 5 μM of FASUDIL, and 0.5 μM of SR3677. The culture media were changed at every 4 days with new culture media supplemented with 5 μM of Y-27632, 5 μM of FASUDIL, and 0.5 μM of SR3677. Since lipofuscin has autofluorescence characteristics, light having a wavelength of 488 nm was irradiated to the cells by using a FACSCaliber (Beckton Dickinson) and light emission at 520 nm was measured. The results are analyzed using a Cell Quest 3.2 software (Beckton Dickinson). FIG. 9 is a graph displaying amounts of lipofuscin in fibroblasts (after 37 cell passages) cultured in the presence of Rho-kinase inhibitors Y-27632 (5 μM), Fasudil (5 μM), and SR3677 (0.5 μM). […] In FIG. 9, * indicates statistically significant (p<0.05).
In general terms: A flow cytometer gives signals particle by particle.

In experiment [2] the test system is senescent progeric fibroblasts (cell passage 17). Briefly: microscopic observation of cell number and shape. The note with it: 4 weeks, FIG. 17; for numbers of cells: vs DMSO. The format is cell-based, human. As for the experimental part: (§1) Progeric fibroblasts (Hutchinson-Gilford Progeria Syndrome Skin Fibroblasts, Coriell Cell Repositories, AG03198 B) were cultured in Dulbecco's Modified Eagle's Media (DMEM) supplemented with 10% fetal bovine serpm (FBS) and 100 unit/ml of penicillin, and 100 μg/ml of streptomycin (two antibiotics are purchased from Gibro-BRL and Grand Island, N.Y.) in a 5% CO2 incubator at 37° C. Subculturing was initiated when the cells were approximately 85% confluent in plates. Early subcultures were performed at a split ratio of 1:4, and later subcultures were performed at a split ratio of 1:2. When cell doubling time was 14 days, the cells were regarded as senescent progeric fibroblasts (cell passages 16 to 17).
The senescent progeric fibroblasts (cell passage 17) were seeded on each well of a 6-well plate in a concentration of 2,000 cells/well and cultured in the presence of 5 μM of Y-27632, 5 μM of FASUDIL, and 0.5 μM of SR3677 for 4 weeks in a 5% CO2 incubator at 37° C. The culture media were changed at every 4 days with new culture media supplemented with 5 μM of Y-27632, 5 μM of FASUDIL, and 0.5 μM of SR3677. A negative control group was prepared in the same manner, except that 0.05 (v/v) % of DMSO was used.
FIG. 17 illustrates microscopic images of cells cultured in the presence of 5 μM of Y-27632, 5 μM of FASUDIL, and 0.5 μM of SR3677. In “a” of FIG. 17, a portion was selected, marked by a rectangle with a dashed line, and enlarged in a1 for closer examination of the cultured cells. In a1 of FIG. 17, a portion of a1 was selected, marked by a rectangle with a dashed line, and enlarged in a2 for much closer examination of the cultured cells (Scale bar 20 um).

The test system of experiment [3] is senescent progeric fibroblasts (passage 17). Briefly: lipofuscin autofluorescence by flow cytometry. The format is cell-based, human. The note with it: 4 weeks, vs control, p<0.05, FIG. 18. As for the experimental part:
as §1
In addition, the amounts of lipofuscin accumulated in the cultured cells were measured. Senescent progeric fibroblasts (passage 17) were cultured in the presence of 5 μM of Y-27632, 5 μM of FASUDIL, and 0.5 μM of SR3677 for 4 weeks in a 5% CO2 incubator at 37° C. The culture media were changed at every 4 days with new culture media supplemented with 5 μM of Y-27632, 5 μM of FASUDIL, and 0.5 μM of SR3677. Since lipofuscin has autofluorescence characteristics, light having a wavelength of 488 nm was irradiated to the cells by using a FACSCaliber (Beckton Dickinson) and light emission at 520 nm was measured. The results were analyzed using Cell Quest 3.2 software (Beckton Dickinson). FIG. 18 is a graph displaying amounts of lipofuscin in progeric fibroblasts (passage 17) cultured in the presence of Rho-kinase inhibitors Y-27632 (5 μM), Fasudil (5 μM), and SR3677 (0.5 μM). […] In FIG. 18, * indicates statistically significant (p<0.05).

For experiment [4], the system named is senescent fibroblasts (after 37 cell passages). Briefly: mitochondrial ROS (MitoSOX) by flow cytometry. The format is cell-based, human. The note with it: vs control, p<0.05, FIG. 10. As for the experimental part: In addition, damage of mitochondria was identified by measuring reactive oxygen species (ROS) and mitochondrial membrane potentials which are well known in the art. ROS were measured using a 0.2 μM MitoSOX (Invitrogen, M3608) according to manufacturer's manuals. Light having a wavelength of 520 nm was irradiated to the cells using a FACSCaliber (Beckton Dickinson), and light emission was measured at 580 nm. The results were analyzed using a Cell Quest 3.2 software (Beckton Dickinson). […] In FIG. 10, * indicates statistically significant (p<0.05).

In experiment [5] the test system is senescent myoblasts (11 cell passages). Briefly: lipofuscin autofluorescence by flow cytometry. The format is cell-based, Human. The note with it: 4 weeks, vs control, p<0.05, FIG. 14. As for the experimental part: Myoblast cell lines (Human Skeletal Muscle Myoblasts, Lonza CC-2580 LOT:0000387550) were cultured in SkBM™-2 Basal Media (Lonza CC-3246) including an SkGM™-2 SingleQuots™ Kit (Lonza CC-3244) on plates coated with Collagen Type I (Greiner Bio One, 658950) in a 5% CO2 incubator at 37° C. Subculture was initiated when the cells were approximately 85% confluent in plates. Early subcultures were performed at a split ratio of 1:4, and later subcultures were performed at a split ratio of 1:2. When cell doubling time was 14 days, the cells were regarded as senescent myoblasts (cell passages 10 to 12).
In addition, amounts of lipofuscin accumulated in the cultured cells were measured. Senescent myoblasts (11 cell passages) were cultured in the presence of 5 μM of Y-27632, 5 μM of FASUDIL, and 0.5 μM of SR3677 for 4 weeks in a 5% CO2 incubator at 37° C. The culture media were changed at every 4 days with new culture media supplemented with 5 μM of Y-27632, 5 μM of FASUDIL, and 0.5 μM of SR3677. Since lipofuscin has autofluorescence characteristics, light having a wavelength of 488 nm was irradiated to the cells by using a FACSCaliber (Beckton Dickinson) and light emission at 520 nm was measured. The results were analyzed using Cell Quest 3.2 software (Beckton Dickinson). FIG. 14 is a graph displaying amounts of lipofuscin in myoblasts (11 cell passages) cultured in the presence of Rho-kinase inhibitors Y-27632 (5 μM), Fasudil (5 μM), and SR3677 (0.5 μM). […] In FIG. 14, * indicates statistically significant (p<0.05).

With `O=S(=O)(c1cccc2cnccc12)N1CCCNCC1` [FASUDIL, 5-(1,4-diazepane-1-sulfonyl)isoquinoline], the “amounts of lipofuscin in cells” value in experiment [1] (5 μM) is given as “significantly reduced”. Further, in experiment [2] (5 μM), the cell shape entry is “spindle shape generally found in young cells” and the numbers of cells result was “greater than that of the control group”. Besides, the amounts of lipofuscin entry in experiment [3] (5 μM) is given as “significantly reduced”. For the same molecule, the ROS entry in experiment [4] (5 μM) was “significantly reduced”. Also, the amounts of lipofuscin entry in experiment [5] (5 μM) is given as “significantly reduced”.

For `CN(C)CCOc1cc(-c2cn[nH]c2)ccc1NC(=O)C1COc2ccccc2O1` (stereo not drawn) [SR3677], the “amounts of lipofuscin in cells” value in experiment [1] (0.5 μM) is given as “significantly reduced”. In addition, in experiment [2] (0.5 μM), the cell shape entry is “spindle shape generally found in young cells”. The numbers of cells result in experiment [2] (0.5 μM) is “greater than that of the control group”. For the same molecule, the amounts of lipofuscin entry in experiment [3] (0.5 μM) and in experiment [5] (0.5 μM) was “significantly reduced” in each case. Further, the ROS result in experiment [4] (0.5 μM) is “significantly reduced”.

As for `C[C@@H](N)[C@H]1CC[C@H](C(=O)Nc2ccncc2)CC1` [Y-27632, (1R,4R)-4-((R)-1-aminoethyl)-N-(pyridin-4-yl)cyclohexanecarboxamide], the “amounts of lipofuscin in cells” value in experiment [1] (5 μM) is reported as “significantly reduced”. Moreover, in experiment [2] (5 μM), the cell shape result is given as “spindle shape generally found in young cells” and the numbers of cells result is listed as “greater than that of the control group”. Moreover, the amounts of lipofuscin result in experiment [3] (5 μM) was “significantly reduced”. In addition, the ROS entry in experiment [4] (5 μM) was “significantly reduced”. The amounts of lipofuscin result in experiment [5] (5 μM) is “significantly reduced”.
